Assay results taken from the METLIN SMRT retention time set (Domingo-Almenara et al. 2019).

Test: gradient 5% acetonitrile 3 min, to 50% in 2 min, to 85% in 15 min, held 3 min, 100 µL/min
Conditions: column: Zorbax Extend-C18 2.1 x 50 mm; eluents: water / acetonitrile, 0.1% formic acid
Summary of the method: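 Pure standards were analyzed in mixtures of ~100 molecules using HPLC coupled to a quadrupole time-of-flight mass spectrometer, in both positive and negative ionization mode. Separation used a Zorbax Extend-C18 column (2.1 × 50 mm, 1.8 μm) at 100 μL/min, with water and acetonitrile each containing 0.1% formic acid. Dead and dwell volumes were 40 μL and 900 μL, and data were collected over 3 months. Retention time was read from computationally picked adduct peaks, each inspected manually.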

Row | SMILES | RP-LC retention time [s]
1 | Cc1nc2nc(-c3ccc(C(C)(C)C)cc3)nn2c(C)c1CC(=O)N1CCOCC1 | 832
2 | CNC(=O)[C@@H]1CN(C(=O)c2noc(C)c2COC)C[C@H]1c1nc(C)no1 | 619
3 | COC[C@@H]1CN(C(=O)c2cc(C)oc2C)C[C@H]1c1nc(C)no1 | 748
4 | C=CCN1C(=O)COc2ccc(-c3csc(NC(C)=O)n3)cc21 | 762
5 | O=C(CCc1nc(CSc2nc3ccccc3s2)no1)Nc1nc(-c2ccccc2)cs1 | 1090
6 | Cc1ccc(CN2CC(COc3cccnc3)C3(CCOCC3)C2)c(C)c1 (configuration not stated) | 591
7 | COc1ccc(-c2ccnn2-c2ccc(SCc3ccccc3)nn2)cc1 | 1320
8 | Cc1nn(Cc2nc(-c3ccc(NC(=O)C4CCC4)cc3)oc2C)c(C)c1C | 881
9 | COc1ccc2[nH]cc(CCn3ccc4c(cnc5nc(-c6ccc(Cl)cc6)nn54)c3=O)c2c1 | 990
10 | O=C(Cn1cccc1-c1nc(-c2ccc3c(c2)OCO3)no1)NCc1ccco1 | 906
11 | CCOC(=O)Cc1csc(NC(=O)C2CC(=O)N(c3n[nH]c4cccc(F)c34)C2)n1 (configuration not stated) | 699
12 | O=C(O)/C=C\C(=O)Nc1nccs1 | 646
13 | COc1ccccc1-c1noc(C2CCCN2C(=O)c2cccs2)n1 (configuration not stated) | 849
14 | O=C(NCc1ccco1)C1CCN(Cc2cc3ccccc3n2Cc2ccccc2Cl)CC1 | 790
15 | O=C(Cc1ccc(F)cc1)N1CCN(Cc2nc(C3CC3)cs2)CC1 | 610
16 | CCc1ccc(NS(=O)(=O)c2cc(-c3nc(C)cs3)cs2)cc1 | 1030
17 | COc1ccc(S(=O)(=O)N2CCC(c3noc(-c4ccc(C)cc4)n3)CC2)cc1 | 1150
18 | Cc1cc(-c2nnc(-c3ccccc3)o2)c(C)n1CC(=O)Nc1cccc(F)c1 | 938
19 | O=C1N=C(N2CCN(Cc3ccc(F)cc3)CC2)S/C1=C\c1cccc(O)c1 | 585

Row | SMILES | RP-LC retention time [s]
20 | Cc1ccc(OCc2nnc3sc(C4COc5ccccc5O4)nn23)cc1 (configuration not stated) | 1010
21 | CCn1cc(S(=O)(=O)N2CC(c3nc(CCOCc4ccccc4)no3)C2)cn1 | 856
22 | Cc1ccc2[nH]cc(CCN3CC(C(=O)Nc4ccc5c(c4)OCO5)CC3=O)c2c1 (configuration not stated) | 783
23 | CC(=O)/C=C1\C(=O)N(C)c2ccccc21 | 858
24 | CCOC(=O)c1cccc(N2C=C(C#N)S(=O)(=O)c3cc(F)ccc32)c1 | 937
25 | CN(C)CCn1c2c(c(SCC(=O)Nc3ccc(Cl)cc3)nc1=O)CCC2 | 656
26 | COCCCn1c(=O)c2ccccc2n(Cc2nc(-c3ccc(OC)cc3)no2)c1=O | 968
27 | Cc1ccccc1CNC(=O)C1CCN(S(C)(=O)=O)c2ccccc2O1 (configuration not stated) | 841
28 | Cc1ccc(NC(=O)Nc2nc(CC(=O)Nc3ccc(F)c(F)c3)cs2)cc1 | 862
29 | CSc1ccc(-c2nc3cc(C)ccn3c2Nc2ccc3c(c2)OCO3)cc1 | 748
30 | COC(=O)c1ccc(C(=O)Nc2ccncc2NC(=O)c2ccc(C(=O)OC)cc2)cc1 | 646
31 | Cc1ccc(C)c(-c2cc3c4nn(CC(=O)N(C)c5ccc(F)cc5)c(=O)n4ccn3n2)c1 | 1020
32 | CCC(C)NS(=O)(=O)c1ccc(-c2c(C)noc2C)cc1 (configuration not stated) | 936
33 | O=C(NCc1cc(-c2ccc3c(c2)OCCO3)on1)c1ccc2nsnc2c1 | 788
34 | COc1ccccc1-c1nc(-c2ccc3c(c2)nnn3CCN(C)C)no1 | 644
35 | COc1ccc(-c2nc(C3CC(=O)N(Cc4ccccc4)C3)no2)cc1 (configuration not stated) | 946
36 | CCCCN1CC(c2nc3ccccc3n2CCOc2ccccc2OC)CC1=O (configuration not stated) | 750
37 | Cc1cccc(-c2ncccc2CNS(=O)(=O)c2ccccc2C)c1 | 725
38 | CCCCNC(=O)CN1c2ccc(F)cc2-c2ccccc2S1(=O)=O | 884

Row | SMILES | RP-LC retention time [s]
39 | CCOc1ccc(NC(=O)c2c(N3CCCC3=O)c3cc(OC)ccc3n2C)cc1 | 984
40 | Cc1nc(C)c(-c2nnc(NC(=O)c3cc(=O)c4ccccc4o3)o2)s1 | 653
41 | CCCCC(C=O)NC(=O)[C@H](CC(C)C)NC(=O)OCc1ccccc1 (some centres not stated) | 970
42 | COc1cc(C2Oc3ccc(C4Oc5cc(O)cc(O)c5C(=O)C4O)cc3OC2CO)ccc1O (configuration not stated) | 685
43 | O=C1NC2(CCN(C(=O)c3cccc(F)c3)CC2)Nc2c(Cl)cccc21 | 756
44 | O=C(NCc1ccccn1)C1CC(=O)N(CCc2c[nH]c3ccc(Cl)cc23)C1 (configuration not stated) | 627
45 | COC(=O)c1c(C)[nH]c(C(=O)N2CCC(CC(=O)NCCC(C)C)CC2)c1C | 716
46 | O=C(Nc1ccccc1)[C@@H]1OCCN(C2CC2)[C@H]1c1ccccc1 | 668
47 | CNC(=O)c1c2c(nc3ccc(F)cc13)CCCC2 | 571
48 | COc1ccc(OC)c(CNC(=O)Cc2nnc(-c3ccc4ncccc4c3)o2)c1 | 688
49 | CN(C)c1ccc(NC(=O)Cn2c(=O)cc(-c3nc(C4CC4)no3)c3ccccc32)cc1 | 697
50 | CCOCCCNC(=O)N1[C@H]2CC[C@@H]1c1cnc(-c3ccccc3)nc1C2 | 778
51 | COc1ccc(CNC(=O)c2nnc(-c3ccc(S(=O)(=O)N(C)C)cc3)o2)cc1 | 845
52 | COc1cc(OC)cc(-c2nnc(Cc3nc(-c4ccccc4)no3)o2)c1 | 1020
53 | COc1ccc(CNC(=O)c2sc(-c3cn(C(C)C)c4ncccc34)nc2C)cc1 | 1030
54 | Cc1nc(-c2cn(C)c3ncccc23)sc1C(=O)NCc1ccc(C(F)(F)F)cc1 | 981
55 | O=C(NCc1ccccc1)Nc1ccc2nc(-c3ccccc3)cc(N3CCOCC3)c2c1 | 709
56 | CN(CCc1noc(-c2ccc(F)cc2)n1)C(=O)Nc1ccccc1F | 882
57 | Cc1cc(C)cc(NC(=O)N(C)CC2CCOCC2)c1 | 776

Further lines, results first:

Row | RP-LC retention time [s] | SMILES
58 | 656 | Cc1cc(N2CCOCC2)n2nc(CN3CCN(c4cccc(Cl)c4)CC3)nc2n1
59 | 742 | CN1C(=O)c2cc(C(=O)N3CCN(c4ncccn4)CC3)nn2CC1(C)C(=O)NC1CCCCCC1 (configuration not stated)
60 | 952 | Cc1nn(-c2ccccc2)c(C)c1N1CCN(S(=O)(=O)c2c(C)noc2C)CC1
61 | 946 | COc1ccc(-c2noc(C3CCCN3C(=O)c3cccc(F)c3)n2)cc1 (configuration not stated)
62 | 896 | CC(C)CC(=O)N1CC(c2nc(-c3ccccc3)no2)C2(CCOCC2)C1 (configuration not stated)
63 | 644 | CN(Cc1nc2cc(C(=O)N3CCCC3)ccc2n1C)C(=O)Nc1ccccc1Br
64 | 487 | CC(=O)NCC(=O)N1CCCn2cc(-c3ccc4c(c3)OCO4)nc21
65 | 952 | CC1(C(=O)NC2CCCCCCC2)CN(S(C)(=O)=O)CC(=O)N1c1ccc(Cl)cc1 (configuration not stated)
66 | 617 | Cc1cc(C)c2c(N3CCSCC3)nc(C(=O)N3CCCC3)nc2n1
67 | 769 | CN1c2ccc(F)cc2C(=O)NC12CCN(C(=O)c1ccc(F)cc1)CC2
68 | 577 | Cc1cc(NCCCC(=O)NC2CC2)n2nc(-c3cccnc3)nc2n1
69 | 763 | Cc1cccc(C(=O)N2CCC3(CC2)NC(=O)c2ccc(F)cc2N3C)c1
70 | 605 | COc1ccc(Nc2c(C(=O)N3CCCCC3)cnc3nc(C)ccc23)cc1
71 | 880 | O=C(c1cc2ccccc2o1)N1CCC(CNS(=O)(=O)Cc2ccccc2Cl)CC1
72 | 595 | Cc1cc(C(=O)Nc2nc3c(s2)CN(C(=O)c2cccn(C)c2=O)CC3)no1
73 | 594 | Cc1ncoc1C(=O)N(C)C1CCc2nn(CC3CC3)c(=O)n2CC1 (configuration not stated)
74 | 788 | COc1cccc(S(=O)(=O)N2CCC(c3noc(-c4cnccn4)n3)C2)c1 (configuration not stated)
75 | 640 | Cc1nc(-c2ccc(S(=O)(=O)N3CCN(c4ccccn4)CC3)cc2)co1
76 | 1060 | Cc1ccc(-c2nc(Cn3nnc(C(=O)NC4CCCC4)c3C)c(C)o2)cc1
77 | 606 | CCC(=O)NCc1nc2c(n1CC)CN(C(=O)c1ccc(Br)cc1)CC2
78 | 919 | CC1CCN(S(=O)(=O)c2ccc3c(ccc(=O)n3CC(=O)NC3CCCc4ccccc43)c2)CC1 (configuration not stated)
79 | 595 | CCc1ccccc1S(=O)(=O)N1CCC(n2cnnc2CC)CC1
80 | 848 | Cc1cccc(NC(=O)CN2C(=O)CCc3cc(S(=O)(=O)N4CCCCC4C)ccc32)c1 (configuration not stated)
81 | 1260 | CC1CCN(S(=O)(=O)c2ccc3nc(N4CCN(c5ccccc5F)CC4)ccc3c2)CC1
82 | 907 | Cc1cc(C)n(-c2ccnc(N3CCC(C(=O)N4CCN(c5ccccc5)CC4)CC3)n2)n1
83 | 1140 | CC1CCN(c2nn(CC(=O)NC3CCc4ccccc43)c(=O)c3ccccc23)CC1 (configuration not stated)
84 | 1170 | COc1ccc(N2CCN(S(=O)(=O)c3cc(-c4cnn5c(C)cc(C)nc45)ccc3C)CC2)cc1
85 | 624 | COc1ccc(NC(=O)N2CCN(CCn3c(C(F)(F)F)nc4cccnc43)CC2)cc1
86 | 902 | CC(NC(=O)CN1C(=O)C2CCCCN2c2ccc(S(=O)(=O)N(C)C)cc21)c1ccccc1 (configuration not stated)
87 | 836 | COc1ccc(C(=O)Nc2cc(C(=O)O)ccc2N2CCN(c3ncccn3)CC2)cc1
